Experiment [1] relates to soluble fraction of brain homogenates. In words: Mass spectrometry proteomics of brain homogenates with IPA. It is filed as in vivo, mice. As to the method:
The results included levodopa (L-dopa), a naturally occurring product that is also a drug for the management of Parkinson's motor symptoms.
Mass spectrometry (MS) analysis on the soluble fraction of brain homogenates extracted from the […] WT and neurodegenerative (AD) mice cohort was performed (DMSO-treated WT mice: n=8; ETP69-treated WT mice: n=7; DMSO-treated AD^+ mice: n=6; ETP69-treated AD^+ n=6).
The effects of ETP69 on the molecular pathways related to neuroprotection and cognitive function was assessed.

Experiment [2] has as its system 6E10. In words: 6E10 staining of brain sections. Particulars: AD+ mice; 4 and 15 days. Format: in vivo. From the text:
ETP69 administration reduced AD-related brain pathology (FIGS. 9A-9C). Brain sections were stained for H3K9me3, 6E10 and GFAP.

Experiment [3] deals with T1, GLP (Homo sapiens, UniProt Q9H9B1).
T1 sequence (Q9H9B1 1-1298): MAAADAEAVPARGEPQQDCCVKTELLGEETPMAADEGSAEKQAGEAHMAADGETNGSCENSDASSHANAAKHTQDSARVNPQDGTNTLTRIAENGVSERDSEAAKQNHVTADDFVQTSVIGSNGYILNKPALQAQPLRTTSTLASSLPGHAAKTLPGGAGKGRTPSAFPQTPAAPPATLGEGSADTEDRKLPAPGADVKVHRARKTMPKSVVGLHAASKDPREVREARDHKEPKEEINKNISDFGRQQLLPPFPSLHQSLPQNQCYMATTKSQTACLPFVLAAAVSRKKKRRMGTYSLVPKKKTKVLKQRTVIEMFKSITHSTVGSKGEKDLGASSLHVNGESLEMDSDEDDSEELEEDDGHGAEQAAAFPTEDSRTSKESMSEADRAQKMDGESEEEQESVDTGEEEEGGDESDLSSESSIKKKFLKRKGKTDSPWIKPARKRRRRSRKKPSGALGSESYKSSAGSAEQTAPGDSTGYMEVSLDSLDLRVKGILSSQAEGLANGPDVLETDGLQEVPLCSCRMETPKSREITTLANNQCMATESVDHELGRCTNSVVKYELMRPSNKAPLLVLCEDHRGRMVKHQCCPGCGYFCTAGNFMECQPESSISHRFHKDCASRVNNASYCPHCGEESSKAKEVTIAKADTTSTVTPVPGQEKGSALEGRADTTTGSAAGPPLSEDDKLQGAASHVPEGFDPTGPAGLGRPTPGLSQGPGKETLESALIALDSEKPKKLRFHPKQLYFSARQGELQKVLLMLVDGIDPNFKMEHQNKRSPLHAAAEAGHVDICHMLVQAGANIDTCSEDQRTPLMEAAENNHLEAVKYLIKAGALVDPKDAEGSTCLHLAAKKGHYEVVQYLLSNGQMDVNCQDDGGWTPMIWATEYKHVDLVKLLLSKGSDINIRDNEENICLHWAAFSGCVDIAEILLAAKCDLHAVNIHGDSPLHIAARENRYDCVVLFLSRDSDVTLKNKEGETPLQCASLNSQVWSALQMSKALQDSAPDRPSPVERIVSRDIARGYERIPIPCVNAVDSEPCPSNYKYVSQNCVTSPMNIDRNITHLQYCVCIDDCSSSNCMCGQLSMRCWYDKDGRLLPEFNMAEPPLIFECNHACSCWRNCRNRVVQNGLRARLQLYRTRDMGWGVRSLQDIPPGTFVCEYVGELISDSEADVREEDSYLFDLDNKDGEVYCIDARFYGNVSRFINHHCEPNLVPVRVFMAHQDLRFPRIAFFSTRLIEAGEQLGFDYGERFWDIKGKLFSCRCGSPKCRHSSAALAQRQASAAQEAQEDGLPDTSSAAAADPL
In words: Methyltransferase inhibition panel: GLP. It is filed as biochemical. The procedure: The ability of ETP69 to inhibit methyltransferases was tested.

Here are results for one compound from patent publication US20260207585A1, “METHODS AND COMPOSITIONS FOR THE TREATMENT OF PARKINSON'S DISEASE, HUNTINGTON'S DISEASE, AMYOTROPHIC LATERAL SCLEROSIS, AND LEARNING DISORDERS” (Cedars-Sinai Medical Center, priority 2022, published 2026).

Like-named read-outs stand apart in the source and are kept apart here.

On to `CN1C(=O)[C@@]23C[C@](C)(C#N)[C@H](c4ccc5c(c4)OCO5)N2C(=O)[C@]1(C)SS3` (racemic) [ETP69, Rac-(3S,6S,7S,8aS)-6-(benzo[d][1,3]dioxol-5-yl)-2,3,7-trimethyl-1,4-dioxohexahydro-6H-3,8a-epidithiopyrrolo[1,2-a]pyrazine-7-carbonitrile], for which the “pathways of learning, cognition, quantity of neurons, dendritic growth and branching (IPA)” value in experiment [1] (AD+ mice) is recorded as “significantly activated”. In experiment [1] (AD+ mice, p=0.0188), the Mapt protein upregulation was determined as 2.4 fold. The Gfra2 protein entry in experiment [1] (ETP69-treated mice, p=0.0056) was “significantly increased”. In experiment [1] (ETP69-treated versus DMSO-control AD+ mice, p=0.015), this compound returned a Lrrn4 protein upregulation of 1.73 fold. The “brain neurotrophic factors (NTFs) expression including BDNF, VGF and levodopa” value in experiment [1] (proteome signatures) is recorded as “induced”. In addition, the 6E10 result in experiment [2] was “significant decrease”. Besides, the remaining activity at 2.5 µM in experiment [3] (read-out: Enzyme % Activity (relative to DMSO controls) Data 1) was 91.4%; in experiment [3] (read-out: Enzyme % Activity (relative to DMSO controls) Data 2), 94.2%.
